US11325913B2, “Compounds and methods for the treatment of malaria” (THE BROAD INSTITUTE, INC., priority 2013, dated 2022)

system: P. falciparum Dd2; test: Activity against the Dd2 strain of P. falciparum (SYBR Green I, 72 h); format: cell-based; conditions: Plasmodium falciparum, DD2, 72 h, P. falciparum Dd2, 72 h incubation
Description: The Dd2 strain of P. falciparum was cultured in complete medium (RPMI with L-glutamine, 4.3% heat-inactivated O-positive human serum, 2.08 mg/ml albumax, 0.013 mg/ml hypoxanthine, 1.17 mg/ml glucose, 0.18% NaHCO3, 0.031 M Hepes, 2.60 mM NaOH, and 0.043 mg/ml gentamicin) until the parasitemia reached 3-8%. Parasitemia was determined by checking at least 500 red blood cells from a Giemsa-stained blood smear. The Dd2 cultures along with tested O-positive red blood cells were centrifuged at room temperature at 2,000 rpm for 5 minutes using an Eppendorf centrifuge 5810R with an A-4-81 rotor. The medium was aspirated off. For the compound screening, a parasite dilution at a 1% parasitemia and 1.0% hematocrit was created with screening medium (RPMI with L-glutamine, 4.16 mg/ml albumax II, 0.013 mg/ml hypoxanthine, 1.73 mg/ml glucose, 0.18% NaHCO3, 0.031 M Hepes, 2.60 mM NaOH, and 0.043 mg/ml gentamicin). The suspension was gassed with 93% nitrogen, 4% carbon dioxide, and 3% oxygen and placed at 37° C. until needed. Using a liquid dispenser, 20 μl of screening medium was dispensed into 384-well, black, clear-bottom plates. With a PinTool, 100 nl of compounds dissolved in DMSO was transferred into the assay plates along with control compound (mefloquine). Next, 30 μl of the parasite suspension in screening medium was then dispensed into the assay plates such that the final parasitemia was 1% and the final hematocrit was 1.0%. Final concentration of DMSO was 0.125%. Mefloquine at a final concentration of 20 μM and DMSO at a final concentration of 0.125% were used within the assay plates to serve as background and baseline controls, respectively. The assay plates were transferred to incubators (93% nitrogen, 4% carbon dioxide, and 3% oxygen during the 72 h incubation at 37° C.). Ten microliters of detection reagent consisting of 10×SYBR Green I (Invitrogen; supplied in 10,000× concentration) in lysis buffer (20 mM Tris-HCl, 5 mM EDTA, 0.16% Saponin wt/vol, 1.6% Triton X vol/vol) was dispensed into the assay plates. For optimal staining, the assay plates were left at room temperature for 24 h in the dark. The assay plates were read by using an Envision (PerkinElmer) reader, with 505 dichroic mirrors with 485-nm excitation and 530-nm emission settings, and the plate reads were from the bottom.
By following the above-described protocol, the 50% effective concentration (EC50) for compounds 1-95 was measured against P. falciparum Dd2 and the results are shown in Table 2: […]

| SMILES | EC50 [nM] |
| --- | --- |
| COc1ccc(NC(=O)N2CCCCN3[C@@H](CO)[C@H](c4ccc(C#Cc5ccccc5)cc4)[C@@H]3C2)cc1 [Compound 52, (8R,9R,10R)-10-(hydroxymethyl)-N-(4-methoxyphenyl)-9-[4-(2-phenylethynyl)phenyl]-1,6-diazabicyclo[6.2.0] decane-6-carboxamide] | 17 |
| COc1ccccc1NC(=O)N1CCCCN2[C@H](CO)[C@H](c3ccc(C#CC4CC4)cc3)[C@H]2C1 [Compound 14, (8S,9R,10S)-9-(4-(cyclopropylethynyl)phenyl)-10-(hydroxymethyl)-N-(2-methoxyphenyl)-1,6-diazabicyclo[6.2.0] decane-6-carboxamide] | 1200 |
| COc1ccc(N(C)C(=O)N2CCCCN3[C@H](CO)[C@H](c4ccc(C#Cc5ccccc5)cc4)[C@@H]3C2)cc1 [Compound 62, (8R,9R,10S)-10-(hydroxymethyl)-N-(4-methoxyphenyl)-N-methyl-9-[4-(2-phenylethynyl)phenyl]-1,6-diazabicyclo[6.2.0] decane-6-carboxamide] | 4430 |
| COc1ccc(CN2CCCCN3[C@H](CO)[C@H](c4ccc(C#Cc5ccccc5)cc4)[C@@H]3C2)cc1 [Compound 63, [(8R,9R,10S)-6-[(4-methoxyphenyl)methyl]-9-[4-(2-phenylethynyl)phenyl]-1,6-diazabicyclo[6.2.0]decan-10-yl]methanol] | 1230 |
| CC(C)CC#Cc1ccc([C@@H]2[C@H](CO)N3CCCCN(S(=O)(=O)Cc4ccccc4)C[C@@H]23)cc1 [Compound 19, ((8R,9S,10R)-6-(benzylsulfonyl)-9-(4-(4-methylpent-1-yn-1-yl)phenyl)-1,6-diazabicyclo[6.2.0]decan-10-yl)methanol] | 805 |
| O=C(Nc1ccccc1F)N1CCCCN2[C@@H](CO)[C@@H](c3ccc(C#Cc4cccnc4)cc3)[C@@H]2C1 [Compound 12] | 950 |
| COc1cccc(CN2CCCCN3[C@H](CO)[C@@H](c4ccc(C#Cc5cccnc5)cc4)[C@@H]3C2)c1 [Compound 1, ((8R,9S,10S)-6-(3-methoxybenzyl)-9-(4-(pyridin-3-ylethynyl)phenyl)-1,6-diazabicyclo[6.2.0]decan-10-yl)methanol] | 427 |
| O=C(Nc1ccccc1F)N1CCCCN2[C@H](CO)[C@H](c3ccc(C#Cc4ccccc4)cc3)[C@@H]2C1 [Compound 49, (8R,9R,10S)-N-(2-fluorophenyl)-10-(hydroxymethyl)-9-[4-(2-phenylethynyl)phenyl]-1,6-diazabicyclo[6.2.0] decane-6-carboxamide] | 65 |
| COc1ccc(NC(=O)N2CCCCN3[C@H](CO)[C@H](c4ccc(C#Cc5ccc(F)cc5F)cc4)[C@@H]3C2)cc1 [Compound 75, (8R,9R,10S)-9-{4-[2-(2,4-difluorophenyl)ethynyl]phenyl}-10-(hydroxymethyl)-N-(4-methoxyphenyl)-1,6-diazabicyclo[6.2.0] decane-6-carboxamide] | 71 |
| CNC[C@H]1[C@H](c2ccc(C#Cc3ccccc3)cc2)[C@@H]2CN(C(=O)Nc3ccc(OC)cc3)CCCCN12 [Compound 88, (8R,9S,10R)-N-(4-methoxyphenyl)-10-((methylamino)methyl)-9-(4-(phenylethynyl)phenyl)-1,6-diazabicyclo[6.2.0] decane-6-carboxamide] | 25 |
| OC[C@H]1[C@@H](c2ccc(-c3cccc(F)c3)cc2)[C@@H]2CN(CCC(F)(F)F)CCCCN12 [Compound 16, ((8R,9S,10R)-9-(3′-fluoro-[1,1′-biphenyl]-4-yl)-6-(3,3,3-trifluoropropyl)-1,6-diazabicyclo[6.2.0]decan-10-yl)methanol] | 618 |
| Cc1cccc(-c2ccc([C@H]3[C@H]4CN(S(=O)(=O)c5cccc(C)c5)CCCCN4[C@H]3CO)cc2)c1 [Compound 7, ((8S,9S,10R)-9-(3′-methyl-[1,1′-biphenyl]-4-yl)-6-(m-tolylsulfonyl)-1,6-diazabicyclo[6.2.0]decan-10-yl)methanol] | 1190 |
| O=C(Nc1ccccc1)N1CCCCN2[C@H](CO)[C@H](c3ccc(C#Cc4cccnc4)cc3)[C@@H]2C1 [Compound 2, (8R,9R,10S)-10-(hydroxymethyl)-N-phenyl-9-(4-(pyridin-3-ylethynyl)phenyl)-1,6-diazabicyclo[6.2.0] decane-6-carboxamide] | 165 |
| COc1ccc(C#Cc2ccc([C@@H]3[C@H](CO)N4CCCCN(C(=O)Nc5ccccc5F)C[C@@H]34)cc2)cc1 [Compound 29, (8R,9S,10R)-N-(2-fluorophenyl)-10-(hydroxymethyl)-9-(4-((4-methoxyphenyl)ethynyl)phenyl)-1,6-diazabicyclo[6.2.0] decane-6-carboxamide] | 898 |
| CCN(CC)C[C@@H]1[C@H](c2ccc(C#Cc3ccccc3)cc2)[C@@H]2CN(C(=O)Nc3ccc(OC)cc3)CCCCN12 [Compound 94, (8R,9S,10S)-10-((diethylamino)methyl)-N-(4-methoxyphenyl)-9-(4-(phenylethynyl)phenyl)-1,6-diazabicyclo[6.2.0] decane-6-carboxamide] | 14 |
| COc1ccc(NC(=O)N2CCCCN3[C@H](CO)[C@H](c4ccc(C#Cc5cccnc5)cc4)[C@@H]3C2)cc1 [Compound 60, (8R,9R,10S)-10-(hydroxymethyl)-N-(4-methoxyphenyl)-9-{4-[2-(pyridin-3-yl)ethynyl]phenyl}-1,6-diazabicyclo[6.2.0] decane-6-carboxamide] | 61 |
| COc1ccc(NC(=O)N2CCCCN3[C@@H](COCC(=O)O)[C@H](c4ccc(C#Cc5ccccc5)cc4)[C@@H]3C2)cc1 [Compound 85, 2-(((8R,9R,10R)-6-((4-methoxyphenyl)carbamoyl)-9-(4-(phenylethynyl)phenyl)-1,6-diazabicyclo[6.2.0]decan-10-yl)methoxy)acetic acid] | 0.4 |
| COc1ccccc1NC(=O)N1CCCCN2[C@@H](CO)[C@H](c3ccc(C#CC4CCCC4)cc3)[C@@H]2C1 [Compound 23, (8R,9R,10R)-9-(4-(cyclopentylethynyl)phenyl)-10-(hydroxymethyl)-N-(2-methoxyphenyl)-1,6-diazabicyclo[6.2.0] decane-6-carboxamide] | 386 |
| COc1ccc(NC(=O)N2C/C=C\CN3[C@H](CO)[C@H](c4ccc(C#Cc5ccccc5)cc4)[C@@H]3C2)cc1 [Compound 47, (8R,9R,10S)-10-(hydroxymethyl)-N-(4-methoxyphenyl)-9-[4-(2-phenylethynyl)phenyl]-1,6-diazabicyclo[6.2.0]dec-3-ene-6-carboxamide] | 23 |
| COc1ccc(NC(=O)N2CCCCN3[C@@H](CN4CCOCC4)[C@H](c4ccc(C#Cc5ccccc5)cc4)[C@@H]3C2)cc1 [Compound 84, (8R,9S,10R)-N-(4-methoxyphenyl)-10-(morpholinomethyl)-9-(4-(phenylethynyl)phenyl)-1,6-diazabicyclo[6.2.0] decane-6-carboxamide] | 52 |
| COc1ccc(NC(=O)N2CCCCN3[C@H](CO)[C@H](c4ccc(-c5cccc(F)c5)cc4)[C@@H]3C2)cc1 [Compound 67, (8R,9R,10S)-9-[4-(3-fluorophenyl)phenyl]-10-(hydroxymethyl)-N-(4-methoxyphenyl)-1,6-diazabicyclo[6.2.0] decane-6-carboxamide] | 19500 |
| O=C(Nc1cccc(F)c1)N1CCCCN2[C@@H](CO)[C@H](c3ccc(C#Cc4cccnc4)cc3)[C@@H]2C1 [Compound 28, (8R,9R,10R)-N-(3-fluorophenyl)-10-(hydroxymethyl)-9-(4-(pyridin-3-ylethynyl)phenyl)-1,6-diazabicyclo[6.2.0] decane-6-carboxamide] | 368 |
| COc1ccc(NC(=O)N2CCCCN3[C@H](CO)[C@H](c4ccc(-c5ccncc5)cc4)[C@@H]3C2)cc1 [Compound 69, (8R,9R,10S)-10-(hydroxymethyl)-N-(4-methoxyphenyl)-9-[4-(pyridin-4-yl)phenyl]-1,6-diazabicyclo[6.2.0] decane-6-carboxamide] | 19500 |
| COc1ccc(NC(=O)N2CCCCN3[C@H](CO)[C@H](c4ccc(C#Cc5ccc(F)c(F)c5)cc4)[C@@H]3C2)cc1 [Compound 71, (8R,9R,10S)-9-{4-[2-(3,4-difluorophenyl)ethynyl]phenyl}-10-(hydroxymethyl)-N-(4-methoxyphenyl)-1,6-diazabicyclo[6.2.0] decane-6-carboxamide] | 34 |
| O=C(Nc1cccc(F)c1)N1CCCCN2[C@H](CO)[C@H](c3ccc(C#Cc4ccccc4)cc3)[C@@H]2C1 [Compound 13, (8R,9R,10S)-N-(3-fluorophenyl)-10-(hydroxymethyl)-9-(4-(phenylethynyl)phenyl)-1,6-diazabicyclo[6.2.0] decane-6-carboxamide] | 44 |
